Values of other authors, collected in patent US8377484B1, “Tumor encapsulation for prevention and treatment of metastatic cancer disease” (priority 2004, dated 2013).

Tests used:
[1] = test system: human breast cancer cells
[2] = test system: Cultured primary rat Schwann cells
[3] = test system: differentiated C2C12 myotubes

Compound | inhibition of cancer cells proliferation [1] | promotion of BM competency ([2]; cell cultures of glial Schwann cells) | promotion of BM competency ([3]; cell cultures of differentiated myotubes) | concentration able to induce BM assembly ([2]; cultured cells in vitro) [mkg/ml] | time for laminin-based BM to form on myotube surface ([3]; incubation with 5-10 microg/ml of laminin-1) [h]
O=c1c(-c2ccc(O)cc2)coc2cc(O)ccc12 [daidzein] | inhibit cancer cells proliferation |  |  |  | 
O=c1c(-c2ccc(O)cc2)coc2cc(O)cc(O)c12 [genistein, 5,7,4′-trihydroxyisoflavone] | inhibit cancer cells proliferation | promote BM competency | promote BM competency |  | 
EHS Laminin-1: major BM structural protein, heterotrimeric laminin from mouse EHS |  |  |  | 2 | ≤ 4
